The source of these data is patent publication US9593127B2, “Heterocyclylalkyne derivatives and their use as modulators of mGluR5 receptors” (RECORDATI IRELAND LTD., priority 2014, dated 2017).

Data set [1] concerns the target T1, human mGlu5 receptor (CHO T-REx h-mGluR5 cells) (Homo sapiens (Human), UniProt P41594). Description: Calcium fluorescence measurement, antagonist potency against EC80 of quisqualate. Conditions: agonist quisqualate at EC80; read-out: h.c. mgluR5 Calcium IC50. The class given is cell-based. From the text:
(§1) Cell lines stably transfected were generated using inducible expression vectors encoding human mGlu5 receptor using the Tetracycline-Regulated Expression system (T-REx™ system, Invitrogen, Life Technologies). Human mGluR5 open reading frame (ORF), comprehensive of the stop codon, were cloned into the pcDNA4/TO/myc-His™ A vector, carrying the TetO2 sequences. The insertion site was HindIII-PstI for mGluR5 receptors. The obtained constructs were then transfected into the T-REx CHO™ cell line using the FuGENE protocol (Roche); the CHO T-REx™ cell line stably expresses the Tet repressor (from the pcDNA6/TR plasmid) under the selection of blasticidin, 10 μg/ml. Stable clones were obtained selecting with zeocine 1 mg/ml and maintaining in ULTRA CHO medium (LONZA) supplemented with dialyzed FBS, zeocin, blasticidine, at 37° C., in an atmosphere of 5% CO2. The expression of h-mGluR5 receptors was de-repressed with 1 μg/ml tetracycline for 18 h before binding experimentation, while the expression of h-mGluR5 receptors was de-repressed respectively with 3 ng/ml and 10 ng/ml tetracycline for 18 h before calcium fluorescence experimentation.
(§2) Cells were seeded into black-walled, clear-bottom, 96-well plates at a density of 80000 cell/well, in RPMI (without Phenol Red, without L-glutamine; Gibco LifeTechnologies, CA) supplemented with 10% dialyzed FBS. Following 18-h incubation with tetracycline, the cells were loaded with […] Ca^2+—sensitive fluorescent dye Fluo-4/AM (Molecular Probes) in Hanks' balanced saline solution (HBSS, Gibco LifeTechnologies, CA) with 20 mM Hepes (Sigma) and 2.5 mM probenecid (Sigma), for 1 h at 37° C. The cells were washed three times with HBSS to remove extracellular dye. Fluorescence signals were measured by using the fluorescence microplate reader Flexstation III (Molecular Devices) at sampling intervals of 1.5 s for 60 s.
(§3) The antagonist potency was determined using the EC80 of the quisqualate used as agonist and the potentiation of mGlu5 activation was determined using the EC20 of the agonist (quisqualate or glutamate). The compounds were applied 10 minutes before the application of the agonist. For binding and calcium assay studies, the compounds were dissolved in DMSO or demineralized water according to their solubility. All the reported doses were those of the corresponding salts or bases.

For data set [2], the target named is T1, human mGlu5 receptor (CHO T-REx h-mGluR5 cells). In words: Radioligand binding assay at cloned mGluR5 ([3H]MPEP displacement). Conditions: 4 nM [3H]MPEP, read-out: h.c. mglu R5 IC50.
Excerpt: as §1
Affinity at transmembrane glutamate metabotropic mGluR5 receptor subtypes was evaluated according to the methods of Anderson (Anderson et al., J Pharmacol. Exp. Ther., (2002), Vol. 303(3), pp. 1044-51), with some modifications. Cloned mGluR5 was obtained by re-suspending CHO T-REx h-mGluR5 cells (50 μg/well) in 20 mM HEPES, 2 mM MgCl2, 2 mM CaCl2, pH 7.4, that then were incubated in a final volume of 1 ml for 60 min at 25° C. with 4 nM [^3H]MPEP in the absence or presence of competing drugs. Non-specific binding was determined in the presence of […] MPEP. The incubation was stopped by addition of cold Tris buffer pH 7.4 and rapid filtration through 0.2% polyethyleneimine pretreated Filtermat 1204-401 (Perkin Elmer) filters. The filters were then washed with cold buffer and the radioactivity retained on the filters was counted by liquid scintillation spectrometry (Betaplate 1204 BS-Wallac).
as §3
The inhibition curves of the tested compounds at native and cloned mGluR1 and mGluR5 subtypes were determined by nonlinear regression analysis using software Prism 4.0 (Graphpad, San Diego, Calif.). The IC50 values and pseudo-Hill slope coefficients were estimated by the program. The values for the inhibition constant, Ki, were calculated according to the equation Ki=IC50/(1+[L]/Kd), where [L] is the concentration of radioligand and Kd is the equilibrium dissociation constant of the radioligand-receptor complex (Cheng et al., Biochem. Pharmacol. (1973), Vol. 22, pp. 3099-3108).

Data set [3] shares this target. Description: Calcium fluorescence measurement, potentiation of mGlu5 activation at EC20 of quisqualate. The class given is cell-based. Conditions: for Fold Shift 1 microM Quisq. / Fold Inc. Quisq.: agonist quisqualate; for EC50: potentiation, agonist quisqualate at EC20, read-out: EC50 nM Quisq.
Excerpt: as §1, §2, §3

For data set [4] the target is unchanged. In words: Calcium fluorescence measurement, potentiation of mGlu5 activation at EC20 of glutamate. The class given is cell-based.
Excerpt: as §1, §2, §3

T1 sequence (P41594 21-1212): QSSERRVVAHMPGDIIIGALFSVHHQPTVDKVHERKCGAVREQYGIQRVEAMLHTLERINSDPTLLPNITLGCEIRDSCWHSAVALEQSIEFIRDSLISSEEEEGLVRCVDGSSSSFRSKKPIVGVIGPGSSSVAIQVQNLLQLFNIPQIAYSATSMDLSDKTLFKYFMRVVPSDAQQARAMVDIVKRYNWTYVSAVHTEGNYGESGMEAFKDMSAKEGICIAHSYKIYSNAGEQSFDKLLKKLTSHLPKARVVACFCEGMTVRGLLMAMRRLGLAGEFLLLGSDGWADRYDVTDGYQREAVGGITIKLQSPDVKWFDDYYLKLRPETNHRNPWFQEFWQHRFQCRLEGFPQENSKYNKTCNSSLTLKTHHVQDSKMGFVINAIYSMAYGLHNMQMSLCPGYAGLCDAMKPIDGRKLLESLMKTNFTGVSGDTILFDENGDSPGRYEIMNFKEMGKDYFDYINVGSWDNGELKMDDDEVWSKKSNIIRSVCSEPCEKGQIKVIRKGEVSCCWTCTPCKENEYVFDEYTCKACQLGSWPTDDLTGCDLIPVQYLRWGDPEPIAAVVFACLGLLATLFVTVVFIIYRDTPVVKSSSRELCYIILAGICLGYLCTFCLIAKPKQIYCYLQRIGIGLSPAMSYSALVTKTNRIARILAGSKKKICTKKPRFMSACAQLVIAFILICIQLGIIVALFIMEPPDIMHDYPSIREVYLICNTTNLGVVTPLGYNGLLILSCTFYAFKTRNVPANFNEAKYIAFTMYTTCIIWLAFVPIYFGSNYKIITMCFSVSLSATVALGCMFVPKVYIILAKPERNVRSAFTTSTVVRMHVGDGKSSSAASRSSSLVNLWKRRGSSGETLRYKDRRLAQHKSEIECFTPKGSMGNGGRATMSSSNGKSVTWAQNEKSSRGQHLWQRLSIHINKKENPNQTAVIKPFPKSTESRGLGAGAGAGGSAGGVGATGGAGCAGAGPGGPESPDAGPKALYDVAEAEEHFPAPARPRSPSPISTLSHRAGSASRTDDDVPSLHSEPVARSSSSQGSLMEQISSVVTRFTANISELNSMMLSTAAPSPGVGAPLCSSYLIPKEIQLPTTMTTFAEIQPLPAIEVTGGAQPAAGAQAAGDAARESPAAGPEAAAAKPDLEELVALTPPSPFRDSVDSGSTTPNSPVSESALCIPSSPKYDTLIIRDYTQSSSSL

One may read the IC50 as the concentration that inhibits the measured activity by half. `CCOC(=O)N1CCC2C(C#Cc3cccc(Cl)c3)=NOC21` (stereo not drawn) [Example 3, ethyl 3-[2-(3-chlorophenyl)ethynyl]-3a,4,5,6a-tetrahydropyrrolo[3,2-d]isoxazole-6-carboxylate]: the IC50 in data set [1] was determined as 0.0548 µM; in data set [2] it was 0.0815 µM.

Take `Cc1cccc(C#CC2=NOC3C2CCN3C(=O)N2CCCC2)c1` (stereo not drawn) [Example 11, [3-[2-(m-tolyl)ethynyl]-3a,4,5,6a-tetrahydropyrrolo[3,2-d]isoxazol-6-yl]-pyrrolidin-1-yl-methanone]: the concentration for half-maximal inhibition (IC50) was > 1 µM in data set [1] and 0.017 µM in data set [2].

For orientation: EC50 means the concentration needed to bring the measured effect to its halfway point. For `CC(C)(C)OC(=O)N1CCC2C(C#Cc3cccc(Cl)c3)=NOC21` (stereo not drawn) [Example 1, tert-butyl 3-[2-(3-chlorophenyl)ethynyl]-3a,4,5,6a-tetrahydropyrrolo[3,2-d]isoxazole-6-carboxylate], in data set [3], the “Fold Shift 1 microM Quisq.” value stood at 1.8 fold, the “Fold Inc. Quisq.” value was determined as 1.96 fold and the concentration for a half-maximal effect (EC50) amounted to 37.1 nM. For the same compound, the IC50 in data set [1] is > 1 µM. The IC50 in data set [2] came to 0.00387 µM.

`Cc1cccc(C#CC2=NOC3C2CCN3C(=O)N2CCOCC2)c1` (stereo not drawn) [Example 13, morpholino-[3-[2-(m-tolyl)ethynyl]-3a,4,5,6a-tetrahydropyrrolo[3,2-d]isoxazol-6-yl]methanone]: in data set [3], the “Fold Shift 1 microM Quisq.” value is on record as 3.2 fold, the “Fold Inc. Quisq.” value worked out at 2.06 fold and the EC50 was 131 nM. In data set [1], the IC50 was > 1 µM. For the same compound, the half-inhibitory concentration (IC50) in data set [2] came out at 0.05 µM.

Consider `Cc1cccc(C#CC2=NOC3C2CCN3C(=O)OC(C)(C)C)c1` (stereo not drawn) [Example 10, tert-butyl 3-[2-(m-tolyl)ethynyl]-3a,4,5,6a-tetrahydropyrrolo[3,2-d]isoxazole-6-carboxylate], for which, in data set [3], the “Fold Shift 1 microM Quisq.” value is reported as 2.2 fold, the “Fold Inc. Quisq.” value is listed as 3.5 fold and the half-maximal effective concentration (EC50) was determined as 141 nM. Also, the IC50 in data set [1] was > 1 µM. In addition, in data set [2], the IC50 was determined as 0.00365 µM.

With `CN(C)C(=O)N1CCC2C(C#Cc3cccc(Cl)c3)=NOC21` (stereo not drawn) [Example 7, 3-[2-(3-chlorophenyl)ethynyl]-N,N-dimethyl-3a,4,5,6a-tetrahydropyrrolo[3,2-d]isoxazole-6-carboxamide], the IC50 in data set [1] was 0.212 µM; in data set [2] it was 0.0592 µM.

Consider `O=C(N1CCCCC1)N1CCC2C(C#Cc3cccc(Cl)c3)=NOC21` (stereo not drawn) [Example 8, [3-[2-(3-chlorophenyl)ethynyl]-3a,4,5,6a-tetrahydropyrrolo[3,2-d]isoxazol-6-yl]-(1-piperidyl)methanone], for which the IC50 is > 1 µM in data set [1] and 0.0125 µM in data set [2].

For `CCN(CC)C(=O)N1CCC2C(C#Cc3cccc(C)c3)=NOC21` (stereo not drawn) [Example 14, N,N-diethyl-3-[2-(m-tolyl)ethynyl]-3a,4,5,6a-tetrahydropyrrolo[3,2-d]isoxazole-6-carboxamide], the figures for the half-maximal inhibitory concentration (IC50) in data set [1] and in data set [2] were > 1 µM and 0.0148 µM, respectively.

On to `O=C(N1CCOCC1)N1CCC2C(C#Cc3cccc(Cl)c3)=NOC21` (stereo not drawn) [Example 6, [3-[2-(3-chlorophenyl)ethynyl]-3a,4,5,6a-tetrahydropyrrolo[3,2-d]isoxazol-6-yl]-morpholino-methanone], for which, in data set [3], the “Fold Shift 1 microM Quisq.” value turned out to be 2.7 fold, the “Fold Inc. Quisq.” value amounted to 3.3 fold and the EC50 came out at 132 nM. The IC50 in data set [2] turned out to be 0.0248 µM. Moreover, the “Fold Increase 1 microM Glutam.” value in data set [4] (1 microM, agonist glutamate) was found to be 3.24 fold. Moreover, in data set [4] (agonist glutamate), the “Fold Increase Glutam.” value is reported as 5.1 fold. In addition, the EC50 in data set [4] (potentiation, agonist glutamate at EC20, read-out: EC50 nM Glutam.) is 95.2 nM.

In the case of `O=C(N1CCCC1)N1CCC2C(C#Cc3cccc(Cl)c3)=NOC21` (stereo not drawn) [Example 9, [3-[2-(3-chlorophenyl)ethynyl]-3a,4,5,6a-tetrahydropyrrolo[3,2-d]isoxazol-6-yl]-pyrrolidin-1-yl-methanone], the IC50 was > 1 µM in data set [1] and 0.015 µM in data set [2].

With `O=C(c1ccco1)N1CCC2C(C#Cc3cccc(Cl)c3)=NOC21` (stereo not drawn) [Example 2, [3-[2-(3-chlorophenyl)ethynyl]-3a,4,5,6a-tetrahydropyrrolo[3,2-d]isoxazol-6-yl]-(2-furyl)methanone], in data set [3], the “Fold Inc. Quisq.” value is on record as 0 fold. Moreover, the half-inhibitory concentration (IC50) in data set [1] was > 1 µM; in data set [2], 0.0296 µM.

As to `CON(C)C(=O)N1CCC2C(C#Cc3cccc(C)c3)=NOC21` (stereo not drawn) [Example 15, N-methoxy-N-methyl-3-[2-(m-tolyl)ethynyl]-3a,4,5,6a-tetrahydropyrrolo[3,2-d]isoxazole-6-carboxamide], the IC50 in data set [1] amounted to 0.0211 µM; in data set [2], 0.022 µM.
